{"source": "paper PMC12888861", "about": "“Antibacterial activity of enmetazobactam against Acinetobacter spp.: a molecular dissection of mechanism of action and resistance determinants” (Antimicrobial Agents and Chemotherapy, 2025)", "key": {"[1]": {"system": "A. baumannii ATCC 19606 cells", "assay": "Cell morphology assay, bright-field microscopy", "format": "cell-based, Acinetobacter baumannii", "conditions": "A. baumannii ATCC 19606, overnight exposure at 1× MIC", "procedure": "In order to confirm the involvement of PBPs as targets of enmetazobactam, cell morphology assays involving exposure to enmetazobactam and sulbactam were performed following the methodology described in Supplementary materials and methods.\nTo confirm the involvement of PBPs as targets of enmetazobactam, the cellular morphology of A. baumannii ATCC 19606 reference strain was analyzed after exposure to the compound at different concentrations. Bright-field microscopy was used to monitor the cell morphology. […] For microscopic visualization, aliquots of each sample were obtained, stained with crystal violet solution and observed using an Olympus BX61 microscope (Olympus).\nChanges in cell morphology were determined on the basis of alterations in septal integrity, abnormal elongation, spheroplast formation and filamentation, patterns previously associated with the selective inhibition of PBP1, PBP2 and PBP3 in Gram-negative bacilli. Specifically, PBP1 inhibition has been linked to cell lysis, PBP2 inhibition has been linked to spherification, and PBP3 inhibition to defective cell division and filament formation (1, 2). The results were qualitatively compared across different treatments to infer the potential selectivity of enmetazobactam for specific PBPs."}, "[2]": {"system": "A. non-baumannii isolates (n = 87)", "assay": "MIC, broth microdilution (EUCAST), A. non-baumannii isolates", "format": "cell-based, Acinetobacter spp. (non-baumannii)", "conditions": "for MIC: in combinations ETZ fixed at 8 mg/L", "text": "The bacterial strains used in this study comprised 208 clinical isolates from the Spanish National Acinetobacter spp. 2020 Multicenter Collection, which was previously characterized in detail by our research group, including whole-genome sequencing, phylogenetics studies, clonal dynamics, and resistance mechanisms ([2], [29]). Additionally, a collection of A. baumannii ATCC 17978 transformants coding the blaOXA-23, blaOXA-24/40, blaOXA-51, blaOXA-58, blaOXA-143, and blaOXA-201 genes, previously constructed and described by our group ([30]), was used to determine the activity of enmetazobactam against strains carrying the main CHDLs of A. baumannii.\nThe antimicrobial susceptibility of the 208 Acinetobacter spp. isolates was assessed using the broth microdilution method, as described in the European Committee on Antimicrobial Susceptibility Testing (EUCAST) v.15 guidelines (http://www.eucast.org/clinical_breakpoints). […] MICs for enmetazobactam alone were assessed as well. […] Subsequently, MIC testing was also conducted with a collection of A. baumannii ATCC 17978 transformants expressing clinically relevant OXA-like carbapenemase genes.\nThe A. baumannii ATCC 19606 strain was used as the reference strain in all susceptibility experiments, in duplicate assays. Antibiotics were purchased from Sigma-Aldrich, except enmetazobactam and durlobactam, which were obtained from Advanz Pharma and MedChemExpress, respectively."}}, "note": "Read-outs that look alike come from different tables or passages of the source.", "data": [{"compound": "C[C@@H](O)[C@H]1C(=O)N2C(C(=O)O)=C(SCCN=CN)C[C@H]12", "note": "[imipenem]", "values": [{"measurement": "cell morphology", "setting": "[1]", "value": "rounded and spherical cells"}, {"measurement": "MIC distribution 0.12", "setting": "[2]", "value": 71.3}, {"measurement": "MIC", "setting": "[2]; Acinetobacter baylyi, isolate NO-Ab27, Acinetobacter baylyi, read-out: MIC", "value": 0.12, "unit": "µg/mL"}, {"measurement": "MIC", "setting": "[2]; Acinetobacter beijerinckii, isolate NO-Ab122, Acinetobacter beijerinckii, read-out: MIC", "value": 0.12, "unit": "µg/mL"}, {"measurement": "MIC", "setting": "[2]; Acinetobacter bereziniae, isolate NO-Ab70, Acinetobacter bereziniae, read-out: MIC", "value": 0.12, "unit": "µg/mL"}, {"measurement": "MIC", "setting": "[2]; Acinetobacter bereziniae, isolate NO-Ab84, Acinetobacter bereziniae, read-out: MIC", "value": 0.12, "unit": "µg/mL"}, {"measurement": "MIC", "setting": "[2]; Acinetobacter bereziniae, isolate NO-Ab104, Acinetobacter bereziniae, read-out: MIC", "value": 0.12, "unit": "µg/mL"}, {"measurement": "MIC", "setting": "[2]; Acinetobacter bereziniae, isolate NO-Ab114, Acinetobacter bereziniae, read-out: MIC", "value": 0.12, "unit": "µg/mL"}, {"measurement": "MIC", "setting": "[2]; Acinetobacter bereziniae, isolate NO-Ab115, Acinetobacter bereziniae, read-out: MIC", "value": 0.25, "unit": "µg/mL"}, {"measurement": "MIC", "setting": "[2]; Acinetobacter bereziniae, isolate NO-Ab116, Acinetobacter bereziniae, read-out: MIC", "value": 0.25, "unit": "µg/mL"}, {"measurement": "MIC", "setting": "[2]; Acinetobacter bereziniae, isolate NO-Ab117, Acinetobacter bereziniae, read-out: MIC", "value": 0.12, "unit": "µg/mL"}, {"measurement": "MIC", "setting": "[2]; Acinetobacter bereziniae, isolate NO-Ab129, Acinetobacter bereziniae, read-out: MIC", "value": 0.25, "unit": "µg/mL"}, {"measurement": "MIC", "setting": "[2]; Acinetobacter bereziniae, isolate NO-Ab156, Acinetobacter bereziniae, read-out: MIC", "value": 0.12, "unit": "µg/mL"}, {"measurement": "MIC", "setting": "[2]; Acinetobacter calcoaceticus, isolate NO-Ab85, Acinetobacter calcoaceticus, read-out: MIC", "value": 0.12, "unit": "µg/mL"}, {"measurement": "MIC", "setting": "[2]; Acinetobacter calcoaceticus, isolate NO-Ab94, Acinetobacter calcoaceticus, read-out: MIC", "value": "≤ 0.06", "unit": "µg/mL"}, {"measurement": "MIC", "setting": "[2]; Acinetobacter calcoaceticus, isolate NO-Ab108, Acinetobacter calcoaceticus, read-out: MIC", "value": "≤ 0.06", "unit": "µg/mL"}, {"measurement": "MIC", "setting": "[2]; Acinetobacter calcoaceticus, isolate NO-Ab161, Acinetobacter calcoaceticus, read-out: MIC", "value": 0.12, "unit": "µg/mL"}, {"measurement": "MIC", "setting": "[2]; Acinetobacter calcoaceticus, isolate NO-Ab198, Acinetobacter calcoaceticus, read-out: MIC", "value": "≤ 0.06", "unit": "µg/mL"}, {"measurement": "MIC", "setting": "[2]; Acinetobacter calcoaceticus, isolate NO-Ab205, Acinetobacter calcoaceticus, read-out: MIC", "value": 0.25, "unit": "µg/mL"}, {"measurement": "MIC", "setting": "[2]; Acinetobacter calcoaceticus, isolate NO-Ab211, Acinetobacter calcoaceticus, read-out: MIC", "value": 0.12, "unit": "µg/mL"}, {"measurement": "MIC", "setting": "[2]; Acinetobacter courvalinii, isolate NO-Ab216, Acinetobacter courvalinii, read-out: MIC", "value": 0.5, "unit": "µg/mL"}, {"measurement": "MIC", "setting": "[2]; Acinetobacter dispersus, isolate NO-Ab2, Acinetobacter dispersus, read-out: MIC", "value": "≤ 0.06", "unit": "µg/mL"}, {"measurement": "MIC", "setting": "[2]; Acinetobacter guillouiae, isolate NO-Ab69, Acinetobacter guillouiae, read-out: MIC", "value": "≤ 0.06", "unit": "µg/mL"}, {"measurement": "MIC", "setting": "[2]; Acinetobacter guillouiae, isolate NO-Ab74, Acinetobacter guillouiae, read-out: MIC", "value": 0.25, "unit": "µg/mL"}, {"measurement": "MIC", "setting": "[2]; Acinetobacter haemolyticus, isolate NO-Ab92, Acinetobacter haemolyticus", "value": 0.12, "unit": "µg/mL"}, {"measurement": "MIC", "setting": "[2]; Acinetobacter haemolyticus, isolate NO-Ab177, Acinetobacter haemolyticus", "value": 0.12, "unit": "µg/mL"}, {"measurement": "MIC", "setting": "[2]; Acinetobacter haemolyticus, isolate NO-Ab217, Acinetobacter haemolyticus", "value": 0.12, "unit": "µg/mL"}, {"measurement": "MIC", "setting": "[2]; Acinetobacter johnsonii, isolate NO-Ab101, Acinetobacter johnsonii, read-out: MIC", "value": 0.12, "unit": "µg/mL"}, {"measurement": "MIC", "setting": "[2]; Acinetobacter junii, isolate NO-Ab76, Acinetobacter junii, read-out: MIC", "value": "≤ 0.06", "unit": "µg/mL"}, {"measurement": "MIC", "setting": "[2]; Acinetobacter junii, isolate NO-Ab77, Acinetobacter junii, OXA-24/40, read-out: MIC", "value": 32, "unit": "µg/mL"}, {"measurement": "MIC", "setting": "[2]; Acinetobacter lactucae, isolate NO-Ab60, Acinetobacter dijkshoorniae, read-out: MIC", "value": 0.25, "unit": "µg/mL"}, {"measurement": "MIC", "setting": "[2]; Acinetobacter lactucae, isolate NO-Ab63, Acinetobacter dijkshoorniae, read-out: MIC", "value": 0.25, "unit": "µg/mL"}, {"measurement": "MIC", "setting": "[2]; Acinetobacter lactucae, isolate NO-Ab65, Acinetobacter dijkshoorniae, read-out: MIC", "value": 0.25, "unit": "µg/mL"}, {"measurement": "MIC", "setting": "[2]; Acinetobacter lactucae, isolate NO-Ab86, Acinetobacter dijkshoorniae, read-out: MIC", "value": 0.12, "unit": "µg/mL"}, {"measurement": "MIC", "setting": "[2]; Acinetobacter lactucae, isolate NO-Ab88, Acinetobacter dijkshoorniae, read-out: MIC", "value": 0.12, "unit": "µg/mL"}, {"measurement": "MIC", "setting": "[2]; Acinetobacter lactucae, isolate NO-Ab91, Acinetobacter dijkshoorniae, read-out: MIC", "value": 0.12, "unit": "µg/mL"}, {"measurement": "MIC", "setting": "[2]; Acinetobacter lactucae, isolate NO-Ab121, Acinetobacter dijkshoorniae, read-out: MIC", "value": 0.12, "unit": "µg/mL"}, {"measurement": "MIC", "setting": "[2]; Acinetobacter lactucae, isolate NO-Ab125, Acinetobacter dijkshoorniae, read-out: MIC", "value": "≤ 0.06", "unit": "µg/mL"}, {"measurement": "MIC", "setting": "[2]; Acinetobacter lactucae, isolate NO-Ab160, Acinetobacter dijkshoorniae, read-out: MIC", "value": 0.12, "unit": "µg/mL"}, {"measurement": "MIC", "setting": "[2]; Acinetobacter nosocomialis, isolate NO-Ab43, Acinetobacter nosocomialis, read-out: MIC", "value": "≤ 0.06", "unit": "µg/mL"}, {"measurement": "MIC", "setting": "[2]; Acinetobacter nosocomialis, isolate NO-Ab68, Acinetobacter nosocomialis, OXA-24/40, read-out: MIC", "value": 32, "unit": "µg/mL"}, {"measurement": "MIC", "setting": "[2]; Acinetobacter nosocomialis, isolate NO-Ab98, Acinetobacter nosocomialis, read-out: MIC", "value": 0.12, "unit": "µg/mL"}, {"measurement": "MIC", "setting": "[2]; Acinetobacter nosocomialis, isolate NO-Ab208, Acinetobacter nosocomialis, read-out: MIC", "value": 0.12, "unit": "µg/mL"}, {"measurement": "MIC", "setting": "[2]; Acinetobacter pittii, isolate NO-Ab59, Acinetobacter pittii, read-out: MIC", "value": 0.25, "unit": "µg/mL"}, {"measurement": "MIC", "setting": "[2]; Acinetobacter pittii, isolate NO-Ab66, Acinetobacter pittii, read-out: MIC", "value": 0.25, "unit": "µg/mL"}, {"measurement": "MIC", "setting": "[2]; Acinetobacter pittii, isolate NO-Ab73, Acinetobacter pittii, read-out: MIC", "value": "≤ 0.06", "unit": "µg/mL"}, {"measurement": "MIC", "setting": "[2]; Acinetobacter pittii, isolate NO-Ab75, Acinetobacter pittii, read-out: MIC", "value": 0.25, "unit": "µg/mL"}, {"measurement": "MIC", "setting": "[2]; Acinetobacter pittii, isolate NO-Ab78, Acinetobacter pittii, read-out: MIC", "value": "≤ 0.06", "unit": "µg/mL"}, {"measurement": "MIC", "setting": "[2]; Acinetobacter pittii, isolate NO-Ab82, Acinetobacter pittii, read-out: MIC", "value": "≤ 0.06", "unit": "µg/mL"}, {"measurement": "MIC", "setting": "[2]; Acinetobacter pittii, isolate NO-Ab89, Acinetobacter pittii, read-out: MIC", "value": 0.12, "unit": "µg/mL"}]}]}
